Assay results published in patent US20150307460A1, “Substituted Triazoles and Imidazoles and Their Use as Fungicides” (BASF SE, priority 2012, published 2015).

Key:
Septoria tritici = assay: Microtest: activity against leaf blotch on wheat caused by Septoria tritici (Septtr), also comparison test CM3; format: cell-based; conditions: 7 days after inoculation, control = 100%
Botrytis cinerea = assay: Microtiterplate test: activity against the grey mold Botrytis cinerea (Botrci), also comparison test CM1; format: cell-based; conditions: 7 days after inoculation, control = 100%
Phytophthora infestans = format: cell-based; conditions: 7 days after inoculation, control = 100%
Puccinia recondita = assay: Green house CG1: preventative control of brown rust on wheat caused by Puccinia recondita (Puccrt P1); format: in vivo; conditions: 150 ppm spray, wheat seedlings, % diseased leaf area, untreated control 90
Method: The spray solutions were prepared in several steps: The stock solution were prepared: a mixture of acetone and/or dimethylsulfoxide and the wetting agent/emulsifier Wettol, which is based on ethoxylated alkylphenoles, in a relation (volume) solvent-emulsifier of 99 to 1 was added to 25 mg of the compound to give a total of 5 ml. Water was then added to total volume of 100 ml. This stock solution was diluted with the described solvent-emulsifier-water mixture to the given concentration. CG1 Preventative Control of Brown Rust on Wheat Caused by Puccinia recondita (Puccrt P1) The first two developed leaves of pot-grown wheat seedling were sprayed to run-off with an aqueous suspension, containing the concentration of active ingredient or their mixture as described below. The next day the plants were inoculated with spores of Puccinia recondita. […] The extent of fungal attack on the leaves was visually assessed as % diseased leaf area.

| SMILES | CM3 Growth (%) at 8 ppm Septtr (Septoria tritici) | CM1 Growth (%) at 8 ppm Botrci (Botrytis cinerea) | CM2 Growth (%) at 31 ppm Phytin (Phytophthora infestans) | CG1 Disease (%) at 150 ppm Puccrt P1 (Puccinia recondita) |
| --- | --- | --- | --- | --- |
| OC1(c2ccc(-c3ccc(Cl)cc3)cc2)CCCCC1n1cncn1 (stereo not drawn) [Compound I-15] | 2% | 0% | – | – |
| OC1(c2ccccc2)CCCCC1n1cncn1 (stereo not drawn) [Example No. 25 of EP 0 152 031, reference compound] | 80% | 70% | 94% | – |
| OC1(c2ccc(-c3ccccc3)cc2)CCCCC1n1cncn1 (stereo not drawn) [Compound I-12] | 1% | 0% | 41% | – |
| OC1(c2cccc(-c3ccc(Cl)cc3)c2)CCCCC1n1cncn1 (stereo not drawn) [Compound I-19] | 1% | 0% | 73% | – |
| OC1(c2ccc(Oc3ccc(Cl)cc3)cc2)CCCCC1n1cncn1 (stereo not drawn) [Compound I-11, 1-[4-(4-chlorophenoxyl)phenyl]-2-(1,2,4-triazol-1-yl)cyclohexanol] | 0% | 0% | 57% | – |
| OC1(c2ccc(Cl)cc2)CCCCC1n1cncn1 (stereo not drawn) [reference compound] | 52% | – | 78% | – |
| OC1(c2ccc(F)cc2)CCCCC1n1cncn1 (stereo not drawn) [Example No. 28 of EP 0 152 031, reference compound] | 83% | 40% | 93% | – |
| OC1(c2ccc(-c3ccc(F)cc3)cc2)CCCCCC1n1cncn1 (stereo not drawn) | – | – | – | 10% |
| OC1(c2ccc(Cl)cc2)CCCCCC1n1cncn1 (stereo not drawn) [reference compound] | – | – | – | 30% |
